{"source": "the NIST ThermoML archive (doi:10.1021/je030151s)", "assay": "xn = mol fraction of the nth substance listed", "conditions": "101.3 kPa, Liquid; for viscosity: Capillary tube (Ostwald / Ubbelohde) method", "note": "Numbers after ± are expanded uncertainties."}
{"smiles": "CCC(=O)CC", "note": "[pentan-3-one] + CCc1ccccc1", "values": [{"measurement": "viscosity", "setting": "293.15 K, x1 = 0.0911", "result": "0.6538 ± 0.0082", "unit": "mPa·s"}, {"measurement": "viscosity", "setting": "293.15 K, x1 = 0.2055", "result": "0.625 ± 0.0079", "unit": "mPa·s"}, {"measurement": "viscosity", "setting": "293.15 K, x1 = 0.3176", "result": "0.6015 ± 0.0077", "unit": "mPa·s"}, {"measurement": "viscosity", "setting": "293.15 K, x1 = 0.4296", "result": "0.5789 ± 0.0074", "unit": "mPa·s"}, {"measurement": "viscosity", "setting": "293.15 K, x1 = 0.5331", "result": "0.5574 ± 0.0072", "unit": "mPa·s"}, {"measurement": "viscosity", "setting": "293.15 K, x1 = 0.6387", "result": "0.534 ± 0.007", "unit": "mPa·s"}, {"measurement": "viscosity", "setting": "293.15 K, x1 = 0.7378", "result": "0.516 ± 0.0068", "unit": "mPa·s"}, {"measurement": "viscosity", "setting": "293.15 K, x1 = 0.8322", "result": "0.4975 ± 0.0066", "unit": "mPa·s"}, {"measurement": "viscosity", "setting": "293.15 K, x1 = 0.9245", "result": "0.4811 ± 0.0065", "unit": "mPa·s"}, {"measurement": "viscosity", "setting": "293.15 K, x1 = 1", "result": "0.4714 ± 0.0064", "unit": "mPa·s"}, {"measurement": "mass density", "setting": "293.15 K, x1 = 0.0911", "result": "867 ± 1.2", "unit": "kg/m3"}, {"measurement": "speed of sound", "setting": "293.15 K, x1 = 0.0911", "result": "1328.5 ± 3.5", "unit": "m/s"}, {"measurement": "mass density", "setting": "293.15 K, x1 = 0.2055", "result": "865.5 ± 1.2", "unit": "kg/m3"}, {"measurement": "speed of sound", "setting": "293.15 K, x1 = 0.2055", "result": "1319 ± 3.5", "unit": "m/s"}, {"measurement": "mass density", "setting": "293.15 K, x1 = 0.3176", "result": "863.2 ± 1.2", "unit": "kg/m3"}, {"measurement": "speed of sound", "setting": "293.15 K, x1 = 0.3176", "result": "1309.6 ± 3.4", "unit": "m/s"}, {"measurement": "mass density", "setting": "293.15 K, x1 = 0.4296", "result": "860.1 ± 1.2", "unit": "kg/m3"}, {"measurement": "speed of sound", "setting": "293.15 K, x1 = 0.4296", "result": "1298 ± 3.4", "unit": "m/s"}, {"measurement": "mass density", "setting": "293.15 K, x1 = 0.5331", "result": "854.8 ± 1.2", "unit": "kg/m3"}, {"measurement": "speed of sound", "setting": "293.15 K, x1 = 0.5331", "result": "1287 ± 3.4", "unit": "m/s"}, {"measurement": "mass density", "setting": "293.15 K, x1 = 0.6387", "result": "848.5 ± 1.1", "unit": "kg/m3"}, {"measurement": "speed of sound", "setting": "293.15 K, x1 = 0.6387", "result": "1275 ± 3.4", "unit": "m/s"}, {"measurement": "mass density", "setting": "293.15 K, x1 = 0.7378", "result": "842.5 ± 1.1", "unit": "kg/m3"}, {"measurement": "speed of sound", "setting": "293.15 K, x1 = 0.7378", "result": "1263 ± 3.4", "unit": "m/s"}, {"measurement": "mass density", "setting": "293.15 K, x1 = 0.8322", "result": "835 ± 1.1", "unit": "kg/m3"}, {"measurement": "speed of sound", "setting": "293.15 K, x1 = 0.8322", "result": "1251 ± 3.4", "unit": "m/s"}, {"measurement": "mass density", "setting": "293.15 K, x1 = 0.9245", "result": "826 ± 1.1", "unit": "kg/m3"}, {"measurement": "speed of sound", "setting": "293.15 K, x1 = 0.9245", "result": "1240.3 ± 3.4", "unit": "m/s"}, {"measurement": "mass density", "setting": "293.15 K, x1 = 1", "result": "814.4 ± 1.1", "unit": "kg/m3"}, {"measurement": "speed of sound", "setting": "293.15 K, x1 = 1", "result": "1230.7 ± 3.3", "unit": "m/s"}, {"measurement": "viscosity", "setting": "303.15 K, x1 = 0.0911", "result": "0.5795 ± 0.0074", "unit": "mPa·s"}, {"measurement": "viscosity", "setting": "303.15 K, x1 = 0.2055", "result": "0.5539 ± 0.0072", "unit": "mPa·s"}, {"measurement": "viscosity", "setting": "303.15 K, x1 = 0.3176", "result": "0.5281 ± 0.0069", "unit": "mPa·s"}, {"measurement": "viscosity", "setting": "303.15 K, x1 = 0.4296", "result": "0.5046 ± 0.0067", "unit": "mPa·s"}, {"measurement": "viscosity", "setting": "303.15 K, x1 = 0.5331", "result": "0.486 ± 0.0065", "unit": "mPa·s"}, {"measurement": "viscosity", "setting": "303.15 K, x1 = 0.6387", "result": "0.469 ± 0.0063", "unit": "mPa·s"}, {"measurement": "viscosity", "setting": "303.15 K, x1 = 0.7378", "result": "0.454 ± 0.0062", "unit": "mPa·s"}, {"measurement": "viscosity", "setting": "303.15 K, x1 = 0.8322", "result": "0.441 ± 0.0061", "unit": "mPa·s"}, {"measurement": "viscosity", "setting": "303.15 K, x1 = 0.9245", "result": "0.4309 ± 0.006", "unit": "mPa·s"}, {"measurement": "viscosity", "setting": "303.15 K, x1 = 1", "result": "0.4231 ± 0.0059", "unit": "mPa·s"}, {"measurement": "mass density", "setting": "303.15 K, x1 = 0.0911", "result": "855.9 ± 1.2", "unit": "kg/m3"}, {"measurement": "speed of sound", "setting": "303.15 K, x1 = 0.0911", "result": "1290.2 ± 3.4", "unit": "m/s"}, {"measurement": "mass density", "setting": "303.15 K, x1 = 0.2055", "result": "855.1 ± 1.2", "unit": "kg/m3"}, {"measurement": "speed of sound", "setting": "303.15 K, x1 = 0.2055", "result": "1281.9 ± 3.4", "unit": "m/s"}, {"measurement": "mass density", "setting": "303.15 K, x1 = 0.3176", "result": "852.8 ± 1.2", "unit": "kg/m3"}, {"measurement": "speed of sound", "setting": "303.15 K, x1 = 0.3176", "result": "1272.2 ± 3.4", "unit": "m/s"}, {"measurement": "mass density", "setting": "303.15 K, x1 = 0.4296", "result": "849.9 ± 1.2", "unit": "kg/m3"}, {"measurement": "speed of sound", "setting": "303.15 K, x1 = 0.4296", "result": "1264.5 ± 3.4", "unit": "m/s"}, {"measurement": "mass density", "setting": "303.15 K, x1 = 0.5331", "result": "845.3 ± 1.2", "unit": "kg/m3"}, {"measurement": "speed of sound", "setting": "303.15 K, x1 = 0.5331", "result": "1252.3 ± 3.4", "unit": "m/s"}, {"measurement": "mass density", "setting": "303.15 K, x1 = 0.6387", "result": "839.6 ± 1.2", "unit": "kg/m3"}, {"measurement": "speed of sound", "setting": "303.15 K, x1 = 0.6387", "result": "1242 ± 3.4", "unit": "m/s"}, {"measurement": "mass density", "setting": "303.15 K, x1 = 0.7378", "result": "833.4 ± 1.2", "unit": "kg/m3"}, {"measurement": "speed of sound", "setting": "303.15 K, x1 = 0.7378", "result": "1230 ± 3.3", "unit": "m/s"}, {"measurement": "mass density", "setting": "303.15 K, x1 = 0.8322", "result": "826.8 ± 1.2", "unit": "kg/m3"}, {"measurement": "speed of sound", "setting": "303.15 K, x1 = 0.8322", "result": "1217.5 ± 3.3", "unit": "m/s"}, {"measurement": "mass density", "setting": "303.15 K, x1 = 0.9245", "result": "818 ± 1.2", "unit": "kg/m3"}, {"measurement": "speed of sound", "setting": "303.15 K, x1 = 0.9245", "result": "1206.6 ± 3.3", "unit": "m/s"}, {"measurement": "mass density", "setting": "303.15 K, x1 = 1", "result": "804.7 ± 1.1", "unit": "kg/m3"}, {"measurement": "speed of sound", "setting": "303.15 K, x1 = 1", "result": "1197.8 ± 3.3", "unit": "m/s"}, {"measurement": "viscosity", "setting": "313.15 K, x1 = 0.0911", "result": "0.5116 ± 0.0068", "unit": "mPa·s"}, {"measurement": "viscosity", "setting": "313.15 K, x1 = 0.2055", "result": "0.4881 ± 0.0065", "unit": "mPa·s"}, {"measurement": "viscosity", "setting": "313.15 K, x1 = 0.3176", "result": "0.4642 ± 0.0063", "unit": "mPa·s"}, {"measurement": "viscosity", "setting": "313.15 K, x1 = 0.4296", "result": "0.4429 ± 0.0061", "unit": "mPa·s"}, {"measurement": "viscosity", "setting": "313.15 K, x1 = 0.5331", "result": "0.4247 ± 0.0059", "unit": "mPa·s"}, {"measurement": "viscosity", "setting": "313.15 K, x1 = 0.6387", "result": "0.411 ± 0.0058", "unit": "mPa·s"}, {"measurement": "viscosity", "setting": "313.15 K, x1 = 0.7378", "result": "0.399 ± 0.0057", "unit": "mPa·s"}, {"measurement": "viscosity", "setting": "313.15 K, x1 = 0.8322", "result": "0.388 ± 0.0056", "unit": "mPa·s"}, {"measurement": "viscosity", "setting": "313.15 K, x1 = 0.9245", "result": "0.38 ± 0.0055", "unit": "mPa·s"}, {"measurement": "viscosity", "setting": "313.15 K, x1 = 1", "result": "0.3799 ± 0.0055", "unit": "mPa·s"}, {"measurement": "mass density", "setting": "313.15 K, x1 = 0.0911", "result": "848.3 ± 1.3", "unit": "kg/m3"}, {"measurement": "speed of sound", "setting": "313.15 K, x1 = 0.0911", "result": "1254.5 ± 3.4", "unit": "m/s"}, {"measurement": "mass density", "setting": "313.15 K, x1 = 0.2055", "result": "847 ± 1.3", "unit": "kg/m3"}, {"measurement": "speed of sound", "setting": "313.15 K, x1 = 0.2055", "result": "1246.6 ± 3.4", "unit": "m/s"}, {"measurement": "mass density", "setting": "313.15 K, x1 = 0.3176", "result": "844.5 ± 1.3", "unit": "kg/m3"}, {"measurement": "speed of sound", "setting": "313.15 K, x1 = 0.3176", "result": "1237.2 ± 3.4", "unit": "m/s"}, {"measurement": "mass density", "setting": "313.15 K, x1 = 0.4296", "result": "840.8 ± 1.3", "unit": "kg/m3"}, {"measurement": "speed of sound", "setting": "313.15 K, x1 = 0.4296", "result": "1227.2 ± 3.3", "unit": "m/s"}, {"measurement": "mass density", "setting": "313.15 K, x1 = 0.5331", "result": "836.6 ± 1.3", "unit": "kg/m3"}, {"measurement": "speed of sound", "setting": "313.15 K, x1 = 0.5331", "result": "1217.5 ± 3.3", "unit": "m/s"}, {"measurement": "mass density", "setting": "313.15 K, x1 = 0.6387", "result": "830.6 ± 1.2", "unit": "kg/m3"}, {"measurement": "speed of sound", "setting": "313.15 K, x1 = 0.6387", "result": "1206 ± 3.3", "unit": "m/s"}, {"measurement": "mass density", "setting": "313.15 K, x1 = 0.7378", "result": "824.5 ± 1.2", "unit": "kg/m3"}, {"measurement": "speed of sound", "setting": "313.15 K, x1 = 0.7378", "result": "1195 ± 3.3", "unit": "m/s"}, {"measurement": "mass density", "setting": "313.15 K, x1 = 0.8322", "result": "817.5 ± 1.2", "unit": "kg/m3"}, {"measurement": "speed of sound", "setting": "313.15 K, x1 = 0.8322", "result": "1184.4 ± 3.3", "unit": "m/s"}, {"measurement": "mass density", "setting": "313.15 K, x1 = 0.9245", "result": "808 ± 1.2", "unit": "kg/m3"}, {"measurement": "speed of sound", "setting": "313.15 K, x1 = 0.9245", "result": "1172.5 ± 3.3", "unit": "m/s"}, {"measurement": "mass density", "setting": "313.15 K, x1 = 1", "result": "794.9 ± 1.2", "unit": "kg/m3"}, {"measurement": "speed of sound", "setting": "313.15 K, x1 = 1", "result": "1159.1 ± 3.3", "unit": "m/s"}]}
